Tests used:
Assay in all cases: relative viability (nuclei count vs DMSO), 5 days (fraction); higher = more cells survive
Seliciclib + Foretinib = compound: CC[C@H](CO)Nc1nc(NCc2ccccc2)c2ncn(C(C)C)c2n1 [Seliciclib] + COc1cc2c(Oc3ccc(NC(=O)C4(C(=O)Nc5ccc(F)cc5)CC4)cc3F)ccnc2cc1OCCCN1CCOCC1 [Foretinib] (partner 0.25 µM)
Summary of the method: (§1)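 Nuclei were stained with Hoechst during a one-step fixation (final 0.05% Triton X-100, 1% formaldehyde, 1 ug/ml Hoechst) carried out 5 days after dosing, then counted on 4× images. The cells, lung cancer lines in 1536-well plates, had been dosed by pin tool the day after seeding with one drug alone or a fixed anchor-drug dose plus five library-drug doses (not always all listed) in √10 steps. Relative viability is the nuclei count in treated wells divided by that in vehicle wells, and each value is the median of duplicate plates.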

Seliciclib + Vorinostat = compound: CC[C@H](CO)Nc1nc(NCc2ccccc2)c2ncn(C(C)C)c2n1 [Seliciclib] + O=C(CCCCCCC(=O)Nc1ccccc1)NO [Vorinostat] (partner 1 µM)
Summary of the method: as §1

Seliciclib + AZD7762 = compound: CC[C@H](CO)Nc1nc(NCc2ccccc2)c2ncn(C(C)C)c2n1 [Seliciclib] + NC(=O)Nc1cc(-c2cccc(F)c2)sc1C(=O)N[C@H]1CCCNC1 [AZD7762] (partner 0.2 µM)
Summary of the method: as §1

Seliciclib + Pictilisib = compound: CC[C@H](CO)Nc1nc(NCc2ccccc2)c2ncn(C(C)C)c2n1 [Seliciclib] + CS(=O)(=O)N1CCN(Cc2cc3nc(-c4cccc5[nH]ncc45)nc(N4CCOCC4)c3s2)CC1 [Pictilisib] (partner 1 µM)
Summary of the method: as §1

Cell Line	relative viability (Seliciclib + Foretinib; first compound 0.08 µM)	relative viability (Seliciclib + Foretinib; first compound 0.253 µM)	relative viability (Seliciclib + Foretinib; first compound 0.8 µM)	relative viability (Seliciclib + Foretinib; first compound 2.53 µM)	relative viability (Seliciclib + Foretinib; first compound 8 µM)	relative viability (Seliciclib + Vorinostat; first compound 0.08 µM)	relative viability (Seliciclib + Vorinostat; first compound 0.253 µM)	relative viability (Seliciclib + Vorinostat; first compound 0.8 µM)	relative viability (Seliciclib + Vorinostat; first compound 2.53 µM)	relative viability (Seliciclib + Vorinostat; first compound 8 µM)	relative viability (Seliciclib + AZD7762; first compound 0.08 µM)	relative viability (Seliciclib + AZD7762; first compound 0.253 µM)	relative viability (Seliciclib + AZD7762; first compound 0.8 µM)	relative viability (Seliciclib + AZD7762; first compound 2.53 µM)	relative viability (Seliciclib + AZD7762; first compound 8 µM)	relative viability (Seliciclib + Pictilisib; first compound 0.08 µM)	relative viability (Seliciclib + Pictilisib; first compound 0.253 µM)	relative viability (Seliciclib + Pictilisib; first compound 0.8 µM)	relative viability (Seliciclib + Pictilisib; first compound 2.53 µM)	relative viability (Seliciclib + Pictilisib; first compound 8 µM)
NCI-H2087	1.16	1.05	1.04	1.07	0.816	0.802	0.677	0.686	0.725	0.314	1.28	1.46	1.33	1.24	1.11	1.03	1.12	0.508	0.813	0.832
LU99A	0.83	0.532	0.825	0.717	0.517	0.538	0.383	0.458	0.383	0.455	0.338	0.321	0.491	0.317	0.49	0.349	0.301	0.374	0.229	0.284
NCI-H1355	0.95	0.976	0.706	1.03	0.93	0.635	0.605	0.647	0.523	0.5	0.805	0.623	0.799	0.832	0.975	0.426	0.452	0.359	0.452	0.429
NCI-H520	0.759	–	0.826	0.76	0.858	0.704	0.635	0.802	0.725	0.632	–	–	–	–	–	0.305	0.326	0.287	0.318	0.252
NCI-H661	1.03	0.936	0.975	0.945	0.636	0.721	0.918	0.748	0.703	0.565	–	–	–	–	–	0.362	0.404	0.375	0.295	0.354
NCI-H650	1.03	1.03	0.912	0.842	0.856	0.403	0.36	0.638	0.3	0.341	1.15	0.863	1.26	0.947	1.07	0.887	0.869	1.04	–	0.772
NCI-H647	1.16	–	1.13	1.19	1.09	0.615	0.268	0.639	0.299	0.128	0.676	0.554	0.496	0.554	0.48	0.367	0.45	0.25	0.296	0.248
SW 1573	0.879	1.01	0.946	0.65	0.739	0.943	0.687	0.708	0.632	0.346	–	–	–	–	–	0.494	0.516	0.428	0.516	0.474
COR-L23	0.928	1.22	0.981	0.99	0.738	0.402	0.43	0.403	0.458	0.359	–	–	–	–	–	0.63	0.782	0.86	0.584	0.49
NCI-H1648	–	–	–	–	–	0.519	0.909	0.417	0.365	0.373	0.775	1.06	0.758	0.826	0.71	–	–	–	–	–
SK-LU-1	0.832	0.785	0.83	0.914	0.654	0.701	0.879	0.877	0.753	0.477	–	–	–	–	–	0.615	0.641	0.762	0.556	0.526
NCI-H1650	0.984	1.1	0.956	1.35	0.981	0.474	0.511	0.558	0.526	0.326	–	–	–	–	–	0.579	0.631	0.526	0.466	0.354
NCI-H2342	0.91	0.882	1.06	1.14	0.935	0.792	0.753	0.706	0.663	0.705	0.565	0.509	0.486	0.404	0.427	–	–	–	–	–
UMC-11	1.05	0.87	1.01	0.939	0.784	0.432	0.336	0.353	0.281	0.194	–	–	–	–	–	0.919	0.891	0.854	0.8	0.7
NCI-H2009	1.21	1.24	1.22	1.18	1.27	0.742	0.862	0.753	0.687	0.671	–	–	–	–	–	0.77	1.11	0.584	0.762	0.699
NCI-H2023	0.752	0.664	0.865	0.909	0.833	0.641	0.736	0.649	0.5	0.43	–	–	–	–	–	0.227	0.224	0.232	0.164	0.182
COR-L 105	1.11	0.8	1.02	1.18	1.02	0.83	0.901	0.859	0.802	0.575	–	–	–	–	–	0.379	0.379	0.371	0.32	0.36
NCI-H1563	0.922	0.803	0.932	0.941	0.86	–	–	–	–	–	–	–	–	–	–	0.649	0.621	0.681	0.567	0.691
EBC-1	0.124	0.103	0.105	0.125	0.108	–	–	–	–	–	–	–	–	–	–	0.449	0.407	0.387	0.354	0.343
Calu-6	0.847	0.686	0.945	0.892	0.733	–	–	–	–	–	–	–	–	–	–	0.93	0.969	0.937	0.917	0.759
HCC-44	–	–	–	–	–	1.14	1.19	1.06	1.08	1.07	1.02	1.05	1.12	1.12	0.944	0.639	0.691	0.534	0.46	0.44
